Test results published in the supplement of paper PMC6004109.

Tests used:
Settings in all cases: temperature: 37 °C
[1] = tested on: Saccharomyces cerevisiae ZIM 2558 (RPMI); assay: FICI minimum (fractional inhibitory concentration index, Loewe) (dimensionless); higher = less synergy / more antagonism
Description: (§1)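 CLSI M27-A3 checkerboard broth microdilution of an immunomodulatory drug (or amoxicillin) combined with an antifungal against S. cerevisiae and C. glabrata isolates. Growth was read as OD600 after incubation at 37 °C (48 h for the reported MICs). Reported quantities are the FICI (Loewe: MIC50 for azoles and immunomodulators, MIC90 for AMB; ≤0.5 synergy, ≥4 antagonism), as minimum and maximum over the surface, and the Bliss-independence sum of statistically significant ΔE (positive = synergy). Clinical isolates were tested in RPMI; C. glabrata ATCC 2001 and its pdr1Δ mutant were tested in YPD.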

[2] = tested on: Saccharomyces cerevisiae ZIM 2566 (RPMI); assay: as above
Description: as §1

[3] = tested on: Candida glabrata ZIM 2344 (RPMI); assay: FICI maximum (fractional inhibitory concentration index, Loewe) (dimensionless); higher = less synergy / more antagonism
Description: as §1

[4] = tested on: Candida glabrata ZIM 2365 (RPMI); assay: as above
Description: as §1

[5] = tested on: Candida glabrata ZIM 2369 (RPMI); assay: as above
Description: as §1

[6] = tested on: Candida glabrata ZIM 2382 (RPMI); assay: as above
Description: as §1

[7] = tested on: Candida glabrata ZIM 2385 (RPMI); assay: as above
Description: as §1

[8] = tested on: Candida glabrata ZIM 2389 (RPMI); assay: as above
Description: as §1

[9] = tested on: Saccharomyces cerevisiae ZIM 2247 (RPMI); assay: as above
Description: as §1

[10] = tested on: Saccharomyces cerevisiae ZIM 2255 (RPMI); assay: as above
Description: as §1

[11] = tested on: Saccharomyces cerevisiae ZIM 2260 (RPMI); assay: as above
Description: as §1

[12] = tested on: Saccharomyces cerevisiae ZIM 2269 (RPMI); assay: as above
Description: as §1

[13] = tested on: Saccharomyces cerevisiae ZIM 2558 (RPMI); assay: as above
Description: as §1

[14] = tested on: Saccharomyces cerevisiae ZIM 2566 (RPMI); assay: as above
Description: as §1

[15] = tested on: Candida glabrata ZIM 2344 (RPMI); assay: Bliss independence sum of statistically significant ΔE (measured minus predicted growth inhibition) over checkerboard surface (fraction (sum of ΔE; 1 = 100%)); higher = more synergy
[16] = tested on: Candida glabrata ZIM 2365 (RPMI); assay: as above
[17] = tested on: Candida glabrata ZIM 2369 (RPMI); assay: as above
[18] = tested on: Candida glabrata ZIM 2382 (RPMI); assay: as above
[19] = tested on: Candida glabrata ZIM 2385 (RPMI); assay: as above
[20] = tested on: Candida glabrata ZIM 2389 (RPMI); assay: as above
[21] = tested on: Saccharomyces cerevisiae ZIM 2247 (RPMI); assay: as above
[22] = tested on: Saccharomyces cerevisiae ZIM 2255 (RPMI); assay: as above
[23] = tested on: Saccharomyces cerevisiae ZIM 2260 (RPMI); assay: as above
[24] = tested on: Saccharomyces cerevisiae ZIM 2269 (RPMI); assay: as above
[25] = tested on: Saccharomyces cerevisiae ZIM 2558 (RPMI); assay: as above
[26] = tested on: Saccharomyces cerevisiae ZIM 2566 (RPMI); assay: as above

Compound | FICI minimum [1] | FICI minimum [2] | FICI maximum [3] | FICI maximum [4] | FICI maximum [5] | FICI maximum [6] | FICI maximum [7] | FICI maximum [8] | FICI maximum [9] | FICI maximum [10] | FICI maximum [11] | FICI maximum [12] | FICI maximum [13] | FICI maximum [14] | Bliss independence sum [15] | Bliss independence sum [16] | Bliss independence sum [17] | Bliss independence sum [18] | Bliss independence sum [19] | Bliss independence sum [20] | Bliss independence sum [21] | Bliss independence sum [22] | Bliss independence sum [23] | Bliss independence sum [24] | Bliss independence sum [25] | Bliss independence sum [26]
CC1(C)S[C@@H]2[C@H](NC(=O)[C@H](N)c3ccc(O)cc3)C(=O)N2[C@H]1C(=O)O [amoxicillin] + CCC(C)n1ncn(-c2ccc(N3CCN(c4ccc(OCC5COC(Cn6cncn6)(c6ccc(Cl)cc6Cl)O5)cc4)CC3)cc2)c1=O [itraconazole] | 0.508 | 1.01 | 0.375 | 1.25 | 1.25 | 2.25 | 1.25 | 1.25 | 1.25 | 1.25 | 1.25 | 1.25 | 0.75 | 2.12 | 3 | 3.78 | 0.313 | -0.629 | -0.894 | 0.79 | -3.04 | 0.234 | 0.613 | 0.212 | 0.394 | -0.787
CC1(C)S[C@@H]2[C@H](NC(=O)[C@H](N)c3ccc(O)cc3)C(=O)N2[C@H]1C(=O)O [amoxicillin] + C[C@@H]1[C@H](O)[C@@H](C)/C=C/C=C/C=C/C=C/C=C/C=C/C=C/[C@H](O[C@@H]2O[C@H](C)[C@@H](O)[C@H](N)[C@@H]2O)C[C@@H]2O[C@](O)(C[C@@H](O)C[C@@H](O)[C@H](O)CC[C@@H](O)C[C@@H](O)CC(=O)O[C@H]1C)C[C@H](O)[C@H]2C(=O)O [amphotericin B] | 2.02 | 0.562 | 1.25 | 1.25 | 1.25 | 1.25 | 1.25 | 1.25 | 1.25 | 1.25 | 1.25 | 1.25 | 8.78 | 4.25 | 1.9 | 2.12 | -0.462 | 0.631 | 2.19 | 2.34 | -2.91 | -2.26 | 0.295 | 2.97 | -2.25 | -0.244
CN(Cc1cnc2nc(N)nc(N)c2n1)c1ccc(C(=O)N[C@@H](CCC(=O)O)C(=O)O)cc1 [methotrexate] + CCC(C)n1ncn(-c2ccc(N3CCN(c4ccc(OCC5COC(Cn6cncn6)(c6ccc(Cl)cc6Cl)O5)cc4)CC3)cc2)c1=O [itraconazole] | 0.656 | 1 | 1.16 | 1.16 | 1.16 | 2.16 | 2.16 | 2.04 | 1.16 | 1.08 | 2.04 | 1.16 | 1.08 | 1.16 | -0.688 | 2.18 | -0.495 | -1.18 | -0.777 | 0.179 | 0.35 | 1.41 | -0.71 | -0.796 | 1.01 | 1.34
CN(Cc1cnc2nc(N)nc(N)c2n1)c1ccc(C(=O)N[C@@H](CCC(=O)O)C(=O)O)cc1 [methotrexate] + C[C@@H]1[C@H](O)[C@@H](C)/C=C/C=C/C=C/C=C/C=C/C=C/C=C/[C@H](O[C@@H]2O[C@H](C)[C@@H](O)[C@H](N)[C@@H]2O)C[C@@H]2O[C@](O)(C[C@@H](O)C[C@@H](O)[C@H](O)CC[C@@H](O)C[C@@H](O)CC(=O)O[C@H]1C)C[C@H](O)[C@H]2C(=O)O [amphotericin B] | 1 | 1 | 1.08 | 1.16 | 1.16 | 1.16 | 2.16 | 1.16 | 1.16 | 1.5 | 1.16 | 1.16 | 2.16 | 1.16 | 1.26 | -0.0967 | 0.0762 | -0.569 | -1.71 | -2.52 | -2.39 | 0.262 | 2 | 0.225 | -1.12 | -3.15
